Data set [1] concerns Clostridioides difficile. Nature of the data set: Increase in toxin level in epidemic Clostridium difficile BI9 infected CF1 mouse at 2 mg/day, sc for 4 days assessed after 2 days of last treatment. Type of data set: functional, organism-based.
Data set [2] has as its system Clostridioides difficile. Nature of the data set: Increase in toxin level in epidemic Clostridium difficile BI6-8-17 infected CF1 mouse at 0.2 mg/day, sc for 4 days assessed after 2 days of last treatment. Type of data set: functional, organism-based.
Data set [3] relates to Clostridioides difficile. In words: Effect on growth of nonepidemic Clostridium difficile ATCC 9689 in CF1 mouse assessed as increase in bacterial density in cecal content at 2 mg/day, sc for 4 days assessed after 2 days of last treatment. Type of data set: functional, organism-based.
Data set [4] concerns Clostridioides difficile. Nature of the data set: Effect on growth of epidemic Clostridium difficile BI6-8-17 in CF1 mouse assessed as increase in bacterial density in cecal content at 1.4 mg/day, sc for 4 days assessed after 2 days of last treatment. Type of data set: functional, organism-based.
Data set [5] has as its system Clostridioides difficile. In words: Effect on growth of epidemic Clostridium difficile BI9 in CF1 mouse assessed as increase in bacterial density in cecal content at 2 mg/day, sc for 4 days assessed after 2 days of last treatment. It is filed as functional, organism-based.
Data set [6] relates to Clostridioides difficile. Nature of the data set: Effect on growth of nonepidemic Clostridium difficile J29 in CF1 mouse assessed as increase in bacterial density in cecal content at 1.4 mg/day, sc for 4 days assessed after 2 days of last treatment. Type of data set: functional, organism-based.
The test system of data set [7] is Clostridioides difficile. Nature of the data set: Effect on growth of nonepidemic Clostridium difficile ATCC 9689 in CF1 mouse assessed as increase in bacterial density in cecal content at 1.4 mg/day, sc for 4 days assessed after 2 days of last treatment. It is filed as functional, organism-based.
The subject of data set [8] is Clostridioides difficile. In words: Increase in toxin level in nonepidemic Clostridium difficile J29 infected CF1 mouse at 1.4 mg/day, sc for 4 days assessed after 2 days of last treatment. Type of data set: functional, organism-based.
Data set [9] relates to Clostridioides difficile. Nature of the data set: Effect on growth of fluoroquinolone-susceptible nonepidemic Clostridium difficile strain6 in CF1 mouse assessed as increase in bacterial density in cecal content at dosed sc for 5 days. Type of data set: functional, organism-based.
Data set [10] concerns Clostridioides difficile. In words: Increase in toxin level in epidemic Clostridium difficile BI6-8-17 infected CF1 mouse at 1.4 mg/day, sc for 4 days assessed after 2 days of last treatment. It is filed as functional, organism-based.
For data set [11], the system named is Clostridioides difficile. Nature of the data set: Antimicrobial activity against nonepidemic Clostridium difficile J29 by broth dilution method. Type of data set: functional.
Data set [12] concerns Clostridioides difficile. In words: Increase in toxin level in epidemic Clostridium difficile BI6-8-17 infected CF1 mouse at 2 mg/day, sc for 4 days assessed after 2 days of last treatment. It is filed as functional, organism-based.
In data set [13] the test system is Clostridioides difficile. Nature of the data set: Antimicrobial activity against fluoroquinolone-resistant epidemic Clostridium difficile NAP1 by broth dilution method. It is filed as functional. Background: Dilution methods test growth across graded concentrations, often in twofold steps.
The subject of data set [14] is Clostridioides difficile. In words: Increase in toxin level in nonepidemic Clostridium difficile ATCC 9689 infected in CF1 mouse at 0.2 mg/day, sc for 4 days assessed after 2 days of last treatment. It is filed as functional, organism-based.
In data set [15] the test system is Clostridioides difficile. In words: Antimicrobial activity against nonepidemic Clostridium difficile ATCC 9689 by broth dilution method. Type of data set: functional.
The subject of data set [16] is Clostridioides difficile. In words: Antimicrobial activity against epidemic Clostridium difficile BI9 by broth dilution method. Type of data set: functional.
Data set [17] deals with Clostridioides difficile. Nature of the data set: Increase in toxin level in nonepidemic Clostridium difficile J29 infected CF1 mouse at 2 mg/day, sc for 4 days assessed after 2 days of last treatment. Type of data set: functional, organism-based.
Data set [18] concerns Clostridioides difficile. In words: Antimicrobial activity against epidemic Clostridium difficile BI6-8-17 by broth dilution method. It is filed as functional.
For data set [19], the system named is Clostridioides difficile. Nature of the data set: Increase in toxin level in nonepidemic Clostridium difficile ATCC 9689 infected in CF1 mouse at 1.4 mg/day, sc for 4 days assessed after 2 days of last treatment. It is filed as functional, organism-based.
For data set [20], the system named is Clostridioides difficile. Nature of the data set: Effect on growth of epidemic Clostridium difficile BI9 in CF1 mouse assessed as increase in bacterial density in cecal content at 1.4 mg/day, sc for 4 days assessed after 2 days of last treatment. It is filed as functional, organism-based.
Data set [21] concerns Clostridioides difficile. In words: Increase in toxin level in epidemic Clostridium difficile BI9 infected CF1 mouse at 0.2 mg/day, sc for 4 days assessed after 2 days of last treatment. Type of data set: functional, organism-based.
In data set [22] the test system is Clostridioides difficile. Nature of the data set: Increase in toxin level in nonepidemic Clostridium difficile ATCC 9689 infected in CF1 mouse at 2 mg/day, sc for 4 days assessed after 2 days of last treatment. It is filed as functional, organism-based.
Data set [23] relates to Clostridioides difficile. In words: Increase in toxin level in nonepidemic Clostridium difficile J29 infected CF1 mouse at 0.2 mg/day, sc for 4 days assessed after 2 days of last treatment. It is filed as functional, organism-based.
The test system of data set [24] is Clostridioides difficile. In words: Antimicrobial activity against fluoroquinolone-susceptible nonepidemic Clostridium difficile strain6 by broth dilution method. Type of data set: functional.
Data set [25] concerns Clostridioides difficile. Nature of the data set: Effect on growth of nonepidemic Clostridium difficile J29 in CF1 mouse assessed as increase in bacterial density in cecal content at 2 mg/day, sc for 4 days assessed after 2 days of last treatment. It is filed as functional, organism-based.
Data set [26] deals with Clostridioides difficile. Nature of the data set: Effect on growth of epidemic Clostridium difficile BI6-8-17 in CF1 mouse assessed as increase in bacterial density in cecal content at 2 mg/day, sc for 4 days assessed after 2 days of last treatment. Type of data set: functional, organism-based.
Data set [27] relates to Clostridioides difficile. In words: Increase in toxin level in epidemic Clostridium difficile BI9 infected CF1 mouse at 1.4 mg/day, sc for 4 days assessed after 2 days of last treatment. Type of data set: functional, organism-based.
Data set [28] in a line: Drug level in Clostridium difficile infected CF1 mouse stool at 0.2 mg/day for 4 days. It is filed as ADME. Particulars: read-out: Drug uptake.
Data set [29] relates to Clostridioides difficile. Nature of the data set: Effect on growth of epidemic Clostridium difficile BI9 in CF1 mouse assessed as increase in bacterial density in cecal content at 0.4 mg/day, sc for 4 days assessed after 2 days of last treatment. It is filed as functional, organism-based.
The subject of data set [30] is Clostridioides difficile. In words: Inhibition of clindamycin-susceptible nonepidemic Clostridium difficile strain6 in CF1 mouse at 0.2 mg/day, sc for 5 days assessed after 2 days of last treatment. It is filed as functional, organism-based.
Data set [31] relates to Clostridioides difficile. Nature of the data set: Inhibition of clindamycin-susceptible epidemic Clostridium difficile NAP1 in CF1 mouse at 0.2 mg/day, sc for 5 days assessed after 2 days of last treatment. It is filed as functional, organism-based.
The test system of data set [32] is Clostridioides difficile. Nature of the data set: Inhibition of clindamycin-susceptible epidemic Clostridium difficile NAP1 in CF1 mouse at 0.2 mg/day, sc for 5 days. Type of data set: functional, organism-based.
The subject of data set [33] is Clostridioides difficile. In words: Inhibition of clindamycin-susceptible nonepidemic Clostridium difficile strain6 in CF1 mouse at 0.2 mg/day, sc for 5 days. Type of data set: functional, organism-based.
Data set [34] can be described thus: Drug level in Clostridium difficile infected CF1 mouse stool at 0.375 mg/day for 4 days. Particulars: read-out: Drug uptake. It is filed as ADME.

As usually defined, the MIC is the lowest concentration found to suppress growth.

SMILES strings stand for the structures. In brackets after ≈: the same amount, converted by molar mass. Activity calls are given as the source filed them. No cut-off for these calls is given here.

With `CO/N=C(\C(=O)N[C@@H]1C(=O)N2C(C(=O)O)=C(CSc3nc(=O)c(O)nn3C)CS[C@H]12)c1csc(N)n1` [CEFTRIAXONE], the outcome with Clostridioides difficile [1], in the data set with Clostridioides difficile [2], in the data set on Clostridioides difficile [3], in the data set on Clostridioides difficile [4], in the data set with Clostridioides difficile [5] and in the data set on Clostridioides difficile [6] was Active. Also, the outcome with Clostridioides difficile [7], with Clostridioides difficile [8], in the data set with Clostridioides difficile [9], in the data set on Clostridioides difficile [10], in the data set with Clostridioides difficile [12] and in the data set with Clostridioides difficile [14] was Active. Moreover, the result with Clostridioides difficile [17], in the data set with Clostridioides difficile [19], in the data set on Clostridioides difficile [20], with Clostridioides difficile [21], in the data set with Clostridioides difficile [22] and with Clostridioides difficile [23] was Active. The outcome in the data set on Clostridioides difficile [25], with Clostridioides difficile [26] and in the data set on Clostridioides difficile [27] was Active. Besides, the MIC with Clostridioides difficile [11] turned out to be 64 µg/mL (≈ 115 µM); against Clostridioides difficile [13], 16 µg/mL (≈ 28.9 µM); against Clostridioides difficile [15] it was 32 µg/mL (≈ 57.7 µM); against Clostridioides difficile [16], 32 µg/mL (≈ 57.7 µM); with Clostridioides difficile [18], 32 µg/mL (≈ 57.7 µM); with Clostridioides difficile [24], 32 µg/mL (≈ 57.7 µM).
On to `COc1c(N2CCNC(C)C2)c(F)cc2c(=O)c(C(=O)O)cn(C3CC3)c12` (stereo not drawn) [GATIFLOXACIN], for which the result in the data set on Clostridioides difficile [1], in the data set with Clostridioides difficile [2], in the data set with Clostridioides difficile [8], with Clostridioides difficile [10], in the data set on Clostridioides difficile [12] and with Clostridioides difficile [14] was Active. In addition, the result with Clostridioides difficile [17], with Clostridioides difficile [29], with Clostridioides difficile [19], with Clostridioides difficile [21], with Clostridioides difficile [22] and in the data set with Clostridioides difficile [23] was Active. Besides, in the data set on Clostridioides difficile [27], the result was Active. Moreover, the concentration at 96 h in data set [28] stood at 76600 ng/g. The MIC against Clostridioides difficile [11] was 32 µg/mL (≈ 85.2 µM); in the data set on Clostridioides difficile [13], 256 µg/mL (≈ 682 µM); against Clostridioides difficile [15] it was below 2 µg/mL; in the data set with Clostridioides difficile [16], 64 µg/mL (≈ 170 µM); with Clostridioides difficile [18], 32 µg/mL (≈ 85.2 µM); in the data set on Clostridioides difficile [24], 4 µg/mL (≈ 10.7 µM).
On to `CCC[C@@H]1C[C@@H](C(=O)N[C@@H]([C@H]2O[C@H](SC)[C@H](O)[C@@H](O)[C@H]2O)[C@H](C)Cl)N(C)C1` [CLINDAMYCIN], for which the outcome in the data set on Clostridioides difficile [30] and with Clostridioides difficile [31] was inactive. Besides, the outcome in the data set on Clostridioides difficile [1], in the data set with Clostridioides difficile [2], in the data set with Clostridioides difficile [3], in the data set on Clostridioides difficile [4], in the data set with Clostridioides difficile [5] and with Clostridioides difficile [6] was Active. Besides, the result in the data set with Clostridioides difficile [7], in the data set on Clostridioides difficile [8], with Clostridioides difficile [10], with Clostridioides difficile [32], in the data set with Clostridioides difficile [14] and with Clostridioides difficile [17] was Active. Moreover, the result in the data set with Clostridioides difficile [19], in the data set on Clostridioides difficile [20], in the data set with Clostridioides difficile [21], in the data set on Clostridioides difficile [22], in the data set with Clostridioides difficile [33] and in the data set on Clostridioides difficile [23] was Active. For the same compound, the outcome with Clostridioides difficile [25], in the data set on Clostridioides difficile [26] and in the data set with Clostridioides difficile [27] was Active. In addition, the MIC against Clostridioides difficile [11] is above 256 µg/mL; in the data set with Clostridioides difficile [13] it was 2 µg/mL (≈ 4.71 µM); against Clostridioides difficile [15] it was above 256 µg/mL; against Clostridioides difficile [16] it was above 256 µg/mL; against Clostridioides difficile [18], above 256 µg/mL; against Clostridioides difficile [24], 2 µg/mL (≈ 4.71 µM).
On to `C[C@H]1COc2c(N3CCN(C)CC3)c(F)cc3c(=O)c(C(=O)O)cn1c23.C[C@H]1COc2c(N3CCN(C)CC3)c(F)cc3c(=O)c(C(=O)O)cn1c23.O` [LEVOFLOXACIN], for which, in data set [34], the concentration at 96 h is 58100 ng/g. The MIC in the data set with Clostridioides difficile [11] was 256 µg/mL; with Clostridioides difficile [13], above 256 µg/mL; with Clostridioides difficile [15], 8 µg/mL; against Clostridioides difficile [16] it was 256 µg/mL; with Clostridioides difficile [18], above 256 µg/mL; with Clostridioides difficile [24], 8 µg/mL.

Values taken from ChEMBL document CHEMBL1155776, “Effect of fluoroquinolone treatment on growth of and toxin production by epidemic and nonepidemic clostridium difficile strains in the cecal contents of mice” (Antimicrob Agents Chemother, 2007).
